Values of other authors in US20250221938A1, “PHARMACEUTICAL COMPOSITION, METHODS FOR TREATING AND USES THEREOF” (Boehringer Ingelheim International GmbH, priority 2015, published 2025).
Counter-ions that a name gives are not always drawn.

Conditions: metformin on its own, in the diabetic

CN(C)C(=N)N=C(N)N [metformin, metformin hydrochloride]
average improvement in the HbA1c value: 1.0-1.5%
